Blank lines part the entries; values can stand above or below the compound they belong to.
Columns and labels:
[1] = Decomposition of polygodial on distillation; type: physicochemical; details: yield significantly reduced
Source text: Thus, distillation needs to be performed under reduced pressure using a known vacuum pump such as oil rotary pump, a mechanical booster pump and a diffusion pump.

expert panelists [2] = test: Test Example 2: sensory comparison of polygodial with known carbonation sensation enhancing agents; type: in vivo, human
Method: Sensory evaluation of the samples of Example 4 and Comparative Examples 3 to 11 was performed by 10 expert panelists based on the following Evaluation criteria 1 to 3 using the carbonated water for evaluation of Preparation Example 1 as a control.
[Evaluation Criteria 1] (Strength of Carbonate Stimulation)
(Mode of Generation of Carbonate Stimulation)
Mode of generation of carbonate stimulation was defined as follows and the timing when the highest effect was felt was selected. The timing that won a majority (6 panelists or more) was regarded as the mode of generation of carbonate stimulation of the substance. In the case of a tie (5 panelists for each), the result was referred to as middle.
Initial: stimulation felt immediately after the sample was put in one's mouth. The impact at the moment when one took the sample.
Last: stimulation felt after swallowing the sample. Aftertaste and feeling when going down. Delayed effect.
[Evaluation Criteria 3] (Characteristics of Flavor)
Majority opinions were obtained from panelists' free descriptions of characteristics of flavor they felt.

expert panelists [3] = test: Test Example 3: equivalent carbon dioxide gas pressure by paired comparison; type: in vivo, human; details: base 1.3 kg/cm^2, polygodial 10 ppb (Example 7)
Source text: The strength of carbonate stimulation of the carbonated water of Example 7 prepared by adding the Persicaria hydropiper extract of Production Example 1 to the carbonated water for evaluation of Preparation Example 1 (1.3 kg/cm^2) and the strength of carbonate stimulation of the carbonated waters described in Table 3 (1.4 kg/cm^2, 1.6 kg/cm^2, 1.9 kg/cm^2) separately prepared as a control were compared by 18 to 20 expert panelists. The number of panelists who judged that the carbonated water of Example 7 had strong carbonation and the selectivity of the carbonated water of Example 7 are shown in Table 3.
Furthermore, the relation between the concentration of carbon dioxide gas in the control product and the selectivity of the carbonated water of Example 7 was plotted (see FIG. 1).
Thus, it is considered that addition of polygodial has the same effect as increasing the pressure of carbon dioxide gas by 0.3 kg/cm^2.

expert panelists [4] = test: Test Example 1: sensory evaluation of carbonated water with polygodial; type: in vivo, human
Method: Carbonated water for evaluation was prepared by diluting commercially available carbonated water (pressure of carbon dioxide gas before opening 3.0 kg/cm^2) with water such that the pressure of carbon dioxide gas was 1.3 kg/cm^2.
Polygodial (manufactured by Wako Pure Chemical Industries, Ltd.) was added to the carbonated water for evaluation of Preparation Example 1 such that the concentration was as shown in Table 1 described later and this was referred to as Comparative Examples 1 and 2, and Examples 1 to 6.
20 ppm of the Persicaria hydropiper extract of Production Example 1 was added to the carbonated water for evaluation of Preparation Example 1 and this was referred to as Example 7.
0.05 ppm of Tasmannia lanceolata oil (manufactured by ESSENTIAL OILS OF TASMANIA PTY LTD, polygodial content 20%) was added to the carbonated water for evaluation of Preparation Example 1 and this was referred to as Example 8. […]
Sensory evaluation was performed by 10 expert panelists based on the following Evaluation criteria using a product to which polygodial was not added as a control. For the strength of an offensive taste and odor, the average of the score of the 10 panelists was calculated and determined as the result of evaluation. […]

Evaporating temperature at which polygodial is decomposed [1]: more than 150 °C
Structure (SMILES): CC1(C)CCC[C@]2(C)[C@@H](C=O)C(C=O)=CC[C@@H]12 [polygodial, (1R,4aS,8aS)-5,5,8a-trimethyl-1,4,4a,6,7,8-hexahydronaphthalene-1,2-dicarboxaldehyde]
Timing of the effect of enhancing carbonation sensation (expert panelists [2]): immediate effect | Increase of pressure of carbon dioxide gas having the same effect as addition (expert panelists [3]): 0.3 kg/cm^2 | Enhancement of carbonation sensation (expert panelists [4]; polygodial 0.01 ppb): not enhanced | Enhancement of carbonation sensation and pungency (expert panelists [4]; polygodial 400 ppb): pungency appeared with enhanced carbonation sensation

Structure (SMILES): C/C=C/C=C\CC/C=C/C(=O)NCC(C)C [spilanthol, (2E,6Z,8E)-N-Isobutyl-2,6,8-decatrienamide, reference compound]
Timing of the effect of enhancing carbonation sensation (expert panelists [2]): relatively delayed

From patent publication US12102104B2, “Carbonation sensation enhancing agent for foods and beverages having carbonate stimulation” (Ogawa & Co., Ltd., priority 2018, dated 2024)
